Measurements: paper PMC7610391, “Photocatalytic proximity labelling of MCL-1 by a BH3 ligand” (Communications chemistry, 2019)
“Also recorded” adds a separate entry of the source.

Experiments:
[1] = target: T1, MCL-1/FITC-NOXA-B interaction (Homo sapiens, UniProt Q07820); test: Fluorescence anisotropy competition, MCL-1/FITC-NOXA-B; type: biochemical; conditions: [MCL-1] 75 nM, tracer FITC-NOXA-B 25 nM, Tris buffer pH 7.4, triplicate; printed as ≫; read-out: IC50 against MCL-1
T1 construct: Recombinant MCL-1_172–327 was expressed and purified as published previously; made in house
T1 sequence (Q07820 172-327): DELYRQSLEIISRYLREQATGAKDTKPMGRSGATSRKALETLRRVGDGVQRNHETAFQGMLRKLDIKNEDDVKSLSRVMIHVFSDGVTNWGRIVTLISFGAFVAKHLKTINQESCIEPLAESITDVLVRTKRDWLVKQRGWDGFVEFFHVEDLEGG

MCL-1 [2] = target: T2, MCL-1 (Homo sapiens, UniProt Q07820); test: Photolabelling of recombinant MCL-1, ESI-MS
T2 construct: Recombinant MCL-1_172–327 was expressed and purified as published previously; made in house
T2 sequence (Q07820 172-327): as above

BCL-XL = target: T3, BCL-XL (Homo sapiens, UniProt Q07817, DEL27-82); test: Photolabelling of BCL-xL with Ac-RTA 4, ESI-MS; conditions: pH 7.4
T3 construct: made in house
T3 sequence (Q07817 with tags, fused parts or gaps DEL27-82, species assumed): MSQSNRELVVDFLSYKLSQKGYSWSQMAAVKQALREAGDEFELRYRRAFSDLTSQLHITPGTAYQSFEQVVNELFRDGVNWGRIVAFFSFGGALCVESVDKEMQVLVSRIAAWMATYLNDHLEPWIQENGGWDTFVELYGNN

MCL-1 [3] = target: T2, MCL-1; test: Pull-down of biotinylated MCL-1 with avidin-agarose beads; conditions: 20, 10 µM biotin-RTA 3, or 100 µM with excess label removed
Method: Pull-down of biotinylated MCL-1
The crude labelling mixture was incubated with avadin-agarose beads (50 µL) at r.t. for 2 hours with gentle agitation (input lanes 1-4 and their respective pull-down lanes 6-9). Note that for input lane 5/pull-down lane 10, excess biotin-RTA 3 was removed from the crude labelling mixture using a protein concentrator (10 kDa MWCO) prior to incubation with avidin-agarose beads. Following removal of the supernatant, the beads were washed twice with PBS (100 µL), then boiled at 90 °C for 10 mins in sample loading buffer to elute bound proteins. Samples were separated by SDS-PAGE: the gel (15% acrylamide) was run at a constant voltage of 180 V for 45 min, then the gel was stained with Coomassie Brilliant Blue (CBB) and the image obtained on a Molecular Imager ChemiDoc XRS.
Supplementary Figure 19: Isolation of biotinylated MCL-1 from crude labelling mixture through pull-down with avadin-agarose beads (CBB stained gel). Conditions: 5 µM MCL-1, 0-100 µM biotin-RTA 3, 1 µM Ru(II)(bpy)3-NOXA-B, 10 µM APS, 1 min irradiation, 50 mM […]
3 was used (lanes 7 and 8, respectively), in addition to when 100 µM biotin-RTA 3 was used and the excess label 3 was removed using a protein concentrator (lane 10). 50 µL avidin-agarose beads was used in pull-down experiments.

MCL-1 [4] = target: T2, MCL-1; test: Competition of Ru(II)(bpy)3-NOXA-B 1-mediated MCL-1 photolabelling, in-gel fluorescence; type: biochemical; conditions: 0-100 µM competitor; 5 µM MCL-1, 5 µM TAMRA-RTA 2, 1 µM 1, 10 µM APS, 1 min hν

Molecule: 6b: variant Ac-BID sequence with key hot-spot residues exchanged (L90A and D95R) (EDIIRNIARHAAQVGRSXDRSIW; N-terminal acetyl; C-terminal amide; X18 = norleucine (Nle))
- IC50 [1]: > 50 µM

Molecule: [Ru+2].c1ccc(-c2ccccn2)nc1.c1ccc(-c2ccccn2)nc1.c1ccc(-c2ccccn2)nc1 [Ru(II)(bpy)3]
- photolabelling efficiency of MCL-1 versus targeted catalyst 1 (MCL-1 [2]; 20 mol% Ru(II)(bpy)3, 50 μM Ac-RTA 4, 10 μM APS, 1 min irradiation, pH 7.4): labelling was less efficient
- effect of photocatalyst concentration on BCL-xL labelling (BCL-XL): increased at higher concentrations of Ru(II)(bpy)3
- labelling of BCL-xL with Ac-RTA 4 (BCL-XL): small amounts of BCL-xL could be labelled

Molecule: CN(C)c1ccc(NC(=O)CCCCCNC(=O)CCCCC2SCC3NC(=O)NC32)cc1 (stereo not drawn) [compound 3]
- background labelling with biotin-RTA 3 in the absence of 1 (MCL-1 [2]; 0 µM 1, 5 μM MCL-1, 5 µM biotin-RTA 3, 10 µM APS, 1 min hν): absence of background labelling
- number of labels incorporated on MCL-1 (MCL-1 [2]; Ru(II)(bpy)3-NOXA-B 1-mediated, intact protein ESI-MS): single biotin labelling of MCL-1
- oxidation at irradiation times greater than 1 min (MCL-1 [2]; biotin-RTA 3 5 µM, 1 µM 1, 10 µM APS, 15 mins irradiation shown): higher conversion to oxidised protein species
- affinity purification of biotinylated MCL-1 (MCL-1 [3]): Biotinylated MCL-1 was pulled-down; also recorded: could be affinity-purified with avidin-agarose beads

Molecule: CC[C@H](C)[C@H](NC(=O)[C@H](CCCNC(=N)N)NC(=O)[C@H](CCCNC(=N)N)NC(=O)[C@H](CC(C)C)NC(=O)[C@H](CCC(N)=O)NC(=O)[C@H](C)NC(=O)[C@H](C)NC(C)=O)C(=O)NCC(=O)N[C@@H](CC(=O)O)C(=O)N[C@@H](CCCCN)C(=O)N[C@H](C(=O)N[C@@H](CC(N)=O)C(=O)N[C@@H](CC(C)C)C(=O)N[C@@H](CCCNC(=N)N)C(=O)N[C@@H](CCC(N)=O)C(=O)N[C@@H](CCCCN)C(=O)N[C@@H](CC(C)C)C(=O)N[C@@H](CC(C)C)C(=O)N[C@@H](CC(N)=O)C(N)=O)C(C)C [compound 5]
- inhibition of MCL-1 labelling by Ac-NOXA-B (MCL-1 [4]): did not completely abrogate labelling
